Tests used:
[1] = molecular target: T1, FABP5 (Homo sapiens, UniProt Q01469); test: High throughput fluorescence displacement assay with NBD-stearate; format: binding; conditions: stated in words only
T1 construct: made in house
Protocol: FABP5 (30 μg), NBD-stearate (1 μM), and a competitor test compound were incubated in 30 mM Tris-HCl, 100 mM NaCl buffer (pH 7.6). […] The initial assay was run with buffer (30 mM Tris-HCl buffer), negative controls (buffer and NBD-stearate), positive controls (buffer, NBD-stearate, FABP5), and experimental wells with a variable test compound added (arachidonic acid or one of the 48 test compounds) at 10 μM. […] The Kd of NBD-stearate for FABP5 had been determined previously through incubating FABP5 with increasing concentrations of NBD-stearate.

[2] = test system: male C57Bl6 mice; test: Carrageenan-induced paw edema and thermal hyperalgesia; format: in vivo; conditions: 20 mg/kg, i.p. (FIG. 16A)
Protocol: (§1) We used male C57Bl6 mice (22-30 g, Taconic Farms) for all experiments. The animals were group housed at room temperature and kept on a 12:12 hour light:dark cycle with ad libitum access to water and food. The animals were habituated to the experimental room for one week before testing. All experiments were approved by the Stony Brook University Institutional Animal Care and Use Committee. The experimenter was blinded to the treatment conditions of each animal.
Paw edema was induced by injecting 1% λ-carrageenan (20 μl, in sterile saline) into the plantar surface of the left hind paw and a control solution of saline into the right hind paw using a 27 gauge needle. Paw diameters were measured before carrageenan injection and 4 hours after injection using digital electronic calipers (Fisher) and expressed to the nearest ±0.01 mm. […] The cannabinoid receptor antagonists, rimonabant and SR144528 (3 mg/kg, i.p.), in ethanol:emulphor:saline (1:1:18), were injected 15 min before the FABP inhibitor. Edema is reported as the change in paw diameter at 4 hr over the baseline. Changes in paw diameter of saline-injected contralateral paws were negligible. Thermal hyperalgesia measured the latency to withdraw the paw from a focused beam of radiant heat applied to the plantar surface of the hind paw using a Hargreaves plantar apparatus (Ugo Basile) set at an intensity of 3.0. For each mouse, the average latencies consisted of three trials spaced at least 5 minutes apart. The mice were habituated to the test chamber for 30 min. The cutoff time was set at 30 sec.
(§2) Behavioral data are presented as means±S.E.M. for the vehicle and inhibitor-treated groups, each consisting of at least 6 animals. Statistical significance between vehicle and inhibitor groups was determined using unpaired t-tests or one-way ANOVA followed by Dunnett's post hoc analysis. In all cases, differences of p<0.05 were considered significant.

[3] = test system: male C57Bl6 mice; test: Formalin test; format: in vivo
Protocol: as §1
Mice were habituated to the observation chamber (Plexiglas box, 25 cm×25 cm×25 cm) for 30 min prior to formalin injection. The mice subsequently received an injection of formalin (2.5% in saline, 20 μl) into the plantar surface of the right hind paw using a 27 gauge needle. The animals were immediately placed back into the observation, chamber and nocifensive behavior (time spent licking or biting the paw) was recorded for 60 min. The formalin test consists of two phases with the first phase (0-5 min) reflecting nociceptor activation and the second phase (15-45 min) reflecting an inflammatory pain response.
as §2

[4] = literature; cited from earlier work
[5] = molecular target: FABP4 (Homo sapiens, UniProt P15090); conditions: McDonnell 2006; read-out: Ki against FABP4 (1,8-ANS displacement); cited from earlier work
[6] = molecular target: T1, FABP5; conditions: cited from earlier work
[7] = molecular target: FABP7 (Homo sapiens, UniProt O15540); conditions: natural substrate; read-out: Ki against FABP7; cited from earlier work
[8] = test system: male C57Bl6 mice; conditions: literature SAR study (Chi 2005); cited from earlier work

T1 sequence (Q01469 whole entry, species assumed): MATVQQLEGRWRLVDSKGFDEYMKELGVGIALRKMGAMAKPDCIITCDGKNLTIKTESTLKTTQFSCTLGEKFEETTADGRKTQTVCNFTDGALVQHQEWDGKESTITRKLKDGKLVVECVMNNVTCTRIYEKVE
Chain of FABP7 (O15540 whole entry, species assumed): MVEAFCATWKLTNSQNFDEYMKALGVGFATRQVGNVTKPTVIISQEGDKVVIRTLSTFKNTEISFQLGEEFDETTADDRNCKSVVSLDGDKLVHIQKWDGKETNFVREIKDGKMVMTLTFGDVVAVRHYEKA
Chain of FABP4 (P15090 whole entry, species assumed): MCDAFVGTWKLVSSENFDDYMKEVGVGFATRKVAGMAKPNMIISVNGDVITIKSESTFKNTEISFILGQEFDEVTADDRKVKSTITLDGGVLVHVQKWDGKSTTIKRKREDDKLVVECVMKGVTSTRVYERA

Structure (SMILES): O=C(O)[C@H]1[C@H](c2ccccc2)[C@H](C(=O)Nc2cccc3ccccc23)[C@H]1c1ccccc1 (stereo in doubt) [Compound 53, 3-(naphthalen-1-ylcarbamoyl)-2,4-diphenylcyclobutanecarboxylic Acid]
- FABP inhibition activity [1]: analogous FABP inhibition activity to Compound 26

Structure (SMILES): O=C(O)[C@H]1[C@H](c2ccccc2)[C@H](C(=O)Oc2ccc3ccccc3c2)[C@H]1c1ccccc1 (stereo in doubt) [Compound 54, 3-((naphthalen-2-yloxy)carbonyl)-2,4-diphenylcyclobutanecarboxylic Acid]
- FABP inhibition activity [1]: analogous FABP inhibition activity to Compound 26
- carrageenan-induced paw edema, 24 hrs after inhibitor administration [2]: reduced
- carrageenan-induced thermal hyperalgesia, 24 hrs after inhibitor administration [2]: reduced
- first phase of formalin-induced nociception ([3]; FIG. 16B): reduce
- second phase of formalin-induced nociception ([3]; FIG. 16B): reduce

Structure (SMILES): COc1cc([C@H]2[C@H](C(=O)O[C@@H]3C[C@@H]4[C@@H](CN(C)C[C@@H]4C)[C@@H]3C)[C@H](c3ccc(O)c(OC)c3)[C@H]2C(=O)O[C@@H]2C[C@@H]3[C@@H](CN(C)C[C@@H]3C)[C@@H]2C)ccc1O [(−)-incarvillateine]
- antinociceptive properties [4]: antinociceptive properties on the same level as morphine

Structure (SMILES): O=C(O)[C@@H](O)c1cccc(OCc2ccccc2Cl)c1OCc1ccccc1Cl [BMS480404]
- Ki [5]: 2.5 nM

Structure (SMILES): O=C(O)C1C(c2ccccc2)C(C(=O)Oc2cccc3ccccc23)C1c1ccccc1 (stereo not shown) [Compound 49, γ-2,4-diphenyl-cyclobutane-1,3-dicarboxylic Acid mono-(1-napthyl) Ester]
- results in formalin induced mice models ([3]; mouse, in vivo): excellent results

Structure (SMILES): CCCCCCC(CCCCCCCCCCC(=O)O)N(C)c1ccc([N+](=O)[O-])c2nonc12 (stereo not shown) [NBD-stearate, 12-N-methyl-(7-nitrobenz-2-oxa-1,3-diazo) aminostearic acid]
- Kd ([6]; one site binding analysis, determined previously (Kaczocha 2012), read-out: Kd of NBD-stearate for FABP5): 160 nM

Structure (SMILES): CCCCC/C=C\C/C=C\C/C=C\C/C=C\CCCC(=O)O [arachidonic acid]
- Ki ([6]; published value, read-out: Ki against FABP5, published / previously determined): 130 nM

Structure (SMILES): CCCCCCCC/C=C\CCCCCCCC(=O)O [oleic acid]
- Ki [7]: 350 nM

Structure (SMILES): O=C(O)C1C(c2ccccc2)C(C(=O)O)C1c1ccccc1 (stereo not drawn) [α-truxillic acid, α-2,4-diphenyl-cyclobutane-1,3-dicarboxylic Acid]
- antinociception in early and late stage pain, formalin induced mouse models [8]: best antinociceptive agent in both early and late stage pain
